Experimental data reported in patent US10273544B2, “Methods for predicting likelihood of responding to treatment” (Dana-Farber Cancer Institute, Inc., priority 2010, dated 2019).

Columns and labels:
SLCO2B1-312Arg = biological target: T1, SLCO2B1-312Arg (Homo sapiens, UniProt O94956); assay: DHEAS uptake assay in LNCaP cells transfected with SLCO2B1-312Arg; conditions: read-out: best-fit Km for DHEAS uptake; SLCO2B1-312Arg variant, nonlinear regression
T1 sequence (O94956 1-709 R312Q): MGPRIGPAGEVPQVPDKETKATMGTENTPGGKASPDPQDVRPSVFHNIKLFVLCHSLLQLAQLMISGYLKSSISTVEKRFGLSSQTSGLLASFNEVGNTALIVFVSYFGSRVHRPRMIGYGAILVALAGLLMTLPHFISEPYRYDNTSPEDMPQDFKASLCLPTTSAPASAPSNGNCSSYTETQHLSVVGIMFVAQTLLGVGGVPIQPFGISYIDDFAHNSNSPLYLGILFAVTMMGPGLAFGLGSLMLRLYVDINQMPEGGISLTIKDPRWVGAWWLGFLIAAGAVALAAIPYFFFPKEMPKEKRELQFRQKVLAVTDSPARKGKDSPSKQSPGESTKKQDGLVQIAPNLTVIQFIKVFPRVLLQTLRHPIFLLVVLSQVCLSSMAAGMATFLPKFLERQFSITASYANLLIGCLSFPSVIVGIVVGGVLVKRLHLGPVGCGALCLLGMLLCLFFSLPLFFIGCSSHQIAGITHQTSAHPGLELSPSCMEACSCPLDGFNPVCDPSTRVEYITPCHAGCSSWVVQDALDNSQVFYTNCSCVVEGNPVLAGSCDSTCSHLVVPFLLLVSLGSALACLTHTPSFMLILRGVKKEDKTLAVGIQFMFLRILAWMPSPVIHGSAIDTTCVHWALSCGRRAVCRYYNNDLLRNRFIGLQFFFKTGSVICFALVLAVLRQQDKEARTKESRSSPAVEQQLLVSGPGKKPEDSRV
Excerpt: (§1) Two full-length SLCO2B1 cDNAs, SLCO2B1-312Gln (having a G at the position 935) and SLCO2B1-312Arg (having an A at position 935), were cloned into the pCMV6-XL4 vector (OriGene Technologies, Rockville, Md.). The SLCO2B1 935G>A nucleotide exchange was introduced into the cDNA using the QuikChange Site-Directed Mutagenesis kit (Stratagene, La Jolla, Calif.). Primers used for the mutagenesis were 5′-[…]-3′ (SEQ ID NO:1) and 5′-[…]-3′ (SEQ ID NO:2) (underlined sequences encode 312Arg).
(§2) LNCaP cells were maintained in RPMI 1640 supplemented with 10% fetal bovine serum (FBS). Twenty-four hours before transfection, 2×10^5 cells were seeded in 12-well plates using Phenol-Red free RPMI 1640 supplemented with 10% charcoal-stripped FBS. LNCaP cells were transiently transfected with pCMV-SLCO2B1-312Gln, pCMV-SLCO2B1-312Arg, or pCMV6-XL4 empty vector using Lipofectamine^2000 according to the manufacturer's instructions.
(§3) The enzyme immunoassay test is based on the competition that occurs between an unlabeled antigen (present in standards, control and samples) and an enzyme-labeled antigen (conjugate) for a limited number of antibody binding sites on the microwell plate. The sensitivity of the kit is 5 ng/ml.

LNCaP cells [1] = assay: Cell proliferation, WST-1 assay, LNCaP; type: cell-based; conditions: 100 μM DHEAS, wild type LNCaP, androgen-depleted medium
Protocol: Cell proliferation was determined using a WST-1 kit (Roche, Indianapolis, Ind.). […] Tetrazolium salt cell proliferation assay then was carried out at different days after transfection, following the manufacturer's instructions.

SLCO2B1-312Gln = biological target: T2, SLCO2B1-312Gln (Homo sapiens, UniProt O94956, R312Q); assay: DHEAS uptake assay in LNCaP cells transfected with SLCO2B1-312Gln; conditions: read-out: best-fit Km for DHEAS uptake; SLCO2B1-312Gln variant, nonlinear regression
T2 sequence (O94956 1-709 R312Q): T1 sequence (O94956 1-709 R312Q)
Excerpt: as §1, §2, §3

LNCaP cells [2] = assay: DHEAS uptake assay in LNCaP cells (mock transfected; transfected cells overall); type: cell-based
Protocol: The sensitivity of the kit is 5 ng/ml. […] Samples were tested in triplicate.

PSA = assay: AR mediated PSA expression by quantitative RT-PCR; type: cell-based
Protocol: (§4) Total RNA was isolated from cells using TRIzol reagent (Invitrogen, Carlsbad, Calif.) and then converted to cDNA using High Capacity cDNA Reverse Transcription kit (Applied Biosystems, Foster City, Calif.). The expression levels of SLCO2B1 and GAPDH were measured using a standard TaqMan PCR kit protocol. Experiments were carried out in triplicate for each data point. Real-time PCR primers and probe sets were inventoried products of Applied Biosystem (Assay ID: Hs00200670_m1 and Hs02758991_g1).
(§5) The expression levels of AR and PSA were measured using a standard TaqMan PCR kit protocol (Hs02576345_m1 and Hs00171172_m1) as described in Example 3.

AR = AR expression by quantitative RT-PCR; type: cell-based; conditions: LNCaP and LAPC4 cell lines
Protocol: as §4, §5

Question: Which results are given for `C[C@]12CC[C@H](OS(=O)(=O)O)CC1=CC[C@@H]1[C@@H]2CC[C@]2(C)C(=O)CC[C@@H]12` [DHEAS, sulfated dehydroepiandrosterone]?
Answer: Km (SLCO2B1-312Arg): 13.7 µM; increase of growth rate (LNCaP cells [1]): about 1.4 fold; Km (SLCO2B1-312Gln): 17.7 µM; uptake of DHEAS (LNCaP cells [2]; 100 μM DHEAS, pCMV6-XL4 vector (mock) transfected LNCaP cells): 51.66±7.44 pmol/mg protein; incubation time at which DHEAS uptake reached maximum levels (LNCaP cells [2]; 100 μM DHEAS, various transfected LNCaP cells): 1 h; DHEAS concentration at which uptake saturation is reached (LNCaP cells [2]; SLCO2B1 variant transfected LNCaP cells): 60 to 100 µM; up-regulation of PSA expression, SLCO2B1-Gln cells compared to SLCO2B1-Arg cells (PSA; 100 μM DHEAS, LAPC-4 cells): 1.48 fold; effect of increasing DHEAS level on PSA expression (PSA; wild type LNCaP and LAPC-4 cell lines and cells transfected with SLCO2B1): up-regulated PSA expression; effect of DHEAS exposure on AR mRNA levels (AR): increased AR mRNA levels
